The text below walks through data of ChEMBL document CHEMBL5528086, “Unraveling the Promise of RET Inhibitors in Precision Cancer Therapy by Targeting RET Mutations” (J Med Chem, 2024).

Assay [1] concerns the target Vascular endothelial growth factor receptor 2 (Homo sapiens, UniProt P35968). In words: Inhibition of wild type VEGFR2 (unknown origin) expressed in baculovirus infected insect cells using biotinylated-GGGGQDGKDYIVLPI peptide as substrate incubated for 1 to 4 hrs by TRF assay. Further details: species or system Insect cell.
The target of assay [2] is T1, Proto-oncogene tyrosine-protein kinase receptor Ret (Homo sapiens, UniProt P07949, V804M). Briefly: Inhibition of RET V804M mutant (unknown origin) by KINOMEscan assay.
T1 sequence (P07949 29-1114 V804M limits assumed): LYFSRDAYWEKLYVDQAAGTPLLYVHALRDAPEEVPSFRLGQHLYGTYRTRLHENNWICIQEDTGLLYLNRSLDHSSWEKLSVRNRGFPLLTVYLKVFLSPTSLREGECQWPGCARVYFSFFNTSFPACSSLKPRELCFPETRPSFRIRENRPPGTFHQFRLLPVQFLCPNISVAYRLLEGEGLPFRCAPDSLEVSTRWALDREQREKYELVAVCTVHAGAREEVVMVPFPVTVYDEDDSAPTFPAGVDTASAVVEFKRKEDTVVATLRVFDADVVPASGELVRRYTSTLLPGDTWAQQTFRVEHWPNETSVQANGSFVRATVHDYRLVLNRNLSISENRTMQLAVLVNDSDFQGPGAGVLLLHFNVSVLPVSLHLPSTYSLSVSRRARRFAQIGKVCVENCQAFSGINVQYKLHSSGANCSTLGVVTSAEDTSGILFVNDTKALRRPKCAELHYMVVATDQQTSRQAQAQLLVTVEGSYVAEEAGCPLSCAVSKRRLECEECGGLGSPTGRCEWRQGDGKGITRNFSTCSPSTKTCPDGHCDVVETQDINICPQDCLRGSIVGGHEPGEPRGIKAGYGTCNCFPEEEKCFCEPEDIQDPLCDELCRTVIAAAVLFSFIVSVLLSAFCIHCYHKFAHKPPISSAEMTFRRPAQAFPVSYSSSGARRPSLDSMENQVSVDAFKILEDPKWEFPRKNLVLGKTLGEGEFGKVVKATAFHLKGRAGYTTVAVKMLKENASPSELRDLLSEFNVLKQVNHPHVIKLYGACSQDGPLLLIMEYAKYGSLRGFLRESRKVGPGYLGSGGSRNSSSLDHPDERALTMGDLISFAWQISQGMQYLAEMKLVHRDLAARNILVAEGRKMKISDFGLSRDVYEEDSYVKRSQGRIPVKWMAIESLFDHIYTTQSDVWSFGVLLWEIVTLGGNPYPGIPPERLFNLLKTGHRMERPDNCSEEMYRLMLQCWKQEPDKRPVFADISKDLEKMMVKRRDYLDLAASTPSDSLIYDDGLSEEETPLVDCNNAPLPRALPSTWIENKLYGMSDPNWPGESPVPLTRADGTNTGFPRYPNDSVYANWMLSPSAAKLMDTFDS
Assay [3] concerns the target T2, Proto-oncogene tyrosine-protein kinase receptor Ret (Homo sapiens, UniProt P07949). In words: Inhibition of wild type human RET by KINOMEscan assay.
Assay [4] has as its system Proto-oncogene tyrosine-protein kinase receptor Ret (Homo sapiens), P07949 [V804L]. In words: Inhibition of RET V804L mutant (unknown origin) at 4 nM relative to control.
The target of assay [5] is ALK tyrosine kinase receptor (Homo sapiens, UniProt Q9UM73). In words: Inhibition of wild type ALK (unknown origin) by enzymatic assay.
For assay [6], the target named is T2, Proto-oncogene tyrosine-protein kinase receptor Ret. Briefly: Inhibition of wild type His-tagged human RET by ADP-Glo assay. (ADP-Glo turns the ADP formed in a reaction into a luminescent signal.)
Assay [7] has as its target Proto-oncogene tyrosine-protein kinase receptor Ret (Homo sapiens, UniProt P07949, V804L). Briefly: Inhibition of RET V804L mutant (unknown origin).
Assay [8] concerns Proto-oncogene tyrosine-protein kinase receptor Ret (Homo sapiens), P07949 [S904F]. Briefly: Inhibition of RET S904F mutant (unknown origin) at 1 nM relative to control.
For assay [9], the system named is Proto-oncogene tyrosine-protein kinase receptor Ret (Homo sapiens), P07949 [V804L]. Briefly: Inhibition of RET V804L mutant (unknown origin) at 4 nM by enzymatic assay relative to control.
Proto-oncogene tyrosine-protein kinase receptor Ret (Homo sapiens), P07949 [V804L], sequence (P07949 whole entry V804L): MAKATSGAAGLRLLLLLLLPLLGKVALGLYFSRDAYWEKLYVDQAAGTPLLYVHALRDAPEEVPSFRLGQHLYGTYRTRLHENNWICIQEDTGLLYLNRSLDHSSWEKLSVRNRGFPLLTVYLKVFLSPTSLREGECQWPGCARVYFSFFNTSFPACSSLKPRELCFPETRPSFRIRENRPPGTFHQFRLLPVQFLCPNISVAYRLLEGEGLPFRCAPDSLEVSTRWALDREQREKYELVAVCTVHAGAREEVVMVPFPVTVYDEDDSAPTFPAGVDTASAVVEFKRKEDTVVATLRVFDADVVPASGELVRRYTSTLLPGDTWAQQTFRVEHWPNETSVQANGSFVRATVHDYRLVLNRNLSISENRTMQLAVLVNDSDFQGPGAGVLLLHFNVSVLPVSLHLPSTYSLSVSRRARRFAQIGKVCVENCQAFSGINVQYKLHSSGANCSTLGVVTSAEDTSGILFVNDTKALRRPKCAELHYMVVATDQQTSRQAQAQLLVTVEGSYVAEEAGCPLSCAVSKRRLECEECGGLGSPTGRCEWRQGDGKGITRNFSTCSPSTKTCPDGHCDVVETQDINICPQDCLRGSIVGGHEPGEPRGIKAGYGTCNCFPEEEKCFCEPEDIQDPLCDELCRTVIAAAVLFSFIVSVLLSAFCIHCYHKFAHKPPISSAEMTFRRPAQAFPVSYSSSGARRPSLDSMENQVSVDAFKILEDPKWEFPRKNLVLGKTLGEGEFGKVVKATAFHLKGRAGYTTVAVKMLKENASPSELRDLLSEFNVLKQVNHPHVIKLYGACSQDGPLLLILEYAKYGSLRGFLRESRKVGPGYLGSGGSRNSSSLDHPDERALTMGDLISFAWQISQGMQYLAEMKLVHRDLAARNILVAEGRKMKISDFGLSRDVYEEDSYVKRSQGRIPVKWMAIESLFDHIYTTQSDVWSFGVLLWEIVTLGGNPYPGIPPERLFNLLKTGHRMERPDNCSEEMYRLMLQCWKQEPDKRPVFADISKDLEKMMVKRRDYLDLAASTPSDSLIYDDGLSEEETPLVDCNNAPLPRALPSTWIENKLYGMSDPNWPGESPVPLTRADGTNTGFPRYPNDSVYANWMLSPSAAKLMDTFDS
The nature of assay [10]: Antiproliferative activity against human LC2 cells assessed as reduction in cell growth measured for 48 hrs by MTT assay. In kind it is functional, cell-based. To be noted: LC2, 48 h. On the technique in general: Tetrazolium dyes change colour on reduction, which living cells bring about.
Assay [11] has as its target Coiled-coil domain-containing protein 6/Tyrosine-protein kinase receptor RET (Homo sapiens, UniProt P07949). Briefly: Inhibition of CCDC6-RET (unknown origin). Format: protein assay.
In assay [12] the target is T2, Proto-oncogene tyrosine-protein kinase receptor Ret. In words: Inhibition of full length His-tagged human recombinant RET expressed in baculovirus infected Sf9 cells.
Assay [13] shares this target. In words: Inhibition of GST-tagged wild type RET (unknown origin) expressed in Sf9 cells.
Assay [14] addresses T1, Proto-oncogene tyrosine-protein kinase receptor Ret. In words: Inhibition of RET V804M mutant (unknown origin) expressed in Sf9 cells by enzymatic assay.
The target in assay [15] is Proto-oncogene tyrosine-protein kinase receptor Ret (Homo sapiens, UniProt P07949, G810A). Briefly: Inhibition of RET G810A mutant (unknown origin).
Assay [16] addresses Proto-oncogene tyrosine-protein kinase receptor Ret (Homo sapiens, UniProt P07949, G810D). In words: Inhibition of RET G810D mutant (unknown origin).
Assay [17] has as its target Proto-oncogene tyrosine-protein kinase receptor Ret (Homo sapiens, UniProt P07949, G810S). In words: Inhibition of RET G810S mutant (unknown origin).
For assay [18], the target named is Proto-oncogene tyrosine-protein kinase receptor Ret (Homo sapiens, UniProt P07949, G810V). Briefly: Inhibition of RET G810V mutant (unknown origin).
For assay [19], the target named is Proto-oncogene tyrosine-protein kinase receptor Ret (Homo sapiens, UniProt P07949, G810C). Briefly: Inhibition of RET G810C mutant (unknown origin).
In assay [20] the target is Proto-oncogene tyrosine-protein kinase receptor Ret (Homo sapiens, UniProt P07949, G810R). Briefly: Inhibition of RET G810R mutant (unknown origin).
A short description of assay [21]: Inhibition of CCDC6-RET (unknown origin).

Structures are written as SMILES.

One may read the IC50 as the concentration at which inhibition is half-maximal. Usually inhibition stands for the share of the control response that was lost under treatment. A low value points to a response near the control.

T2 sequence (P07949 whole entry): as the sequence (P07949 whole entry V804L) above, with L804V counted along it
Proto-oncogene tyrosine-protein kinase receptor Ret (Homo sapiens, UniProt P07949, G810S), sequence (P07949 29-1114 G810S limits assumed): as the sequence (P07949 29-1114 V804M limits assumed) above, with M776V, G782S counted along it

`Cn1cc(-c2ccc3c(c2)ncn3-c2ccc(CC(=O)Nc3cc(C(C)(C)C)on3)cc2)cn1`: the IC50 in assay [1], in [2] and in assay [3] was less than 1 nM throughout.

The molecule `Cc1ccc(C(=O)Nc2ccc(CN3CCN(C)CC3)c(C(F)(F)F)c2)cc1C#Cc1cnc(N)c2ncccc12` had an inhibition in assay [4] of 40%.

Consider `CCc1cc2c(cc1-c1ccn(CCCN(C)C)n1)C(C)(C)c1[nH]c3cc(C#N)ccc3c1C2=O`, for which the IC50 amounted to 0.1 nM in [5], 2 nM in assay [6] and 9 nM in assay [7].

For `CN1CCN(Cc2ccc(NC(=O)c3cncc(C#Cc4cnc(N)c5ncccc45)c3)cc2C(F)(F)F)CC1`, the inhibition in assay [8] amounted to 60%; in assay [9], 98%. For the same molecule, the values for the IC50 in [10], in assay [11] and in assay [12] were 3 nM, 3 nM and 3.16 nM, respectively.

In the case of `Cc1nc2cnc(N)c(C#Cc3cncc(C(=O)Nc4ccc(CN5CCN(C)CC5)c(C(F)(F)F)c4)c3)c2nc1C`, the IC50 in [13] came out at 1.76 nM; in [14], 15.1 nM; in assay [15], 1.88 nM; in assay [16], 7.98 nM; in assay [17] it was 10.1 nM; in assay [18] it was 3.6 nM. The IC50 in assay [19] came to 11.6 nM; in assay [20], 18 nM.

`CC1(C)c2cc(C3CCN(CC4CCOCC4)CC3)ccc2C(=O)c2c1[nH]c1cc(C#N)ccc21` returned an IC50 in assay [21] of 43.6 nM.
